The record followed here is patent US20240261258A1, “Presurgical Perineural Administration of Resiniferatoxin For Reduction of Post-Operative Pain” (Sorrento Therapeutics, Inc., priority 2021, published 2024).

The test system of this data set is healthy dogs undergoing TPLO surgery. In words: Clinical observations during RTX instillation under general anesthesia and recovery. The class given is in vivo, dog. The source says: This example provides safety data related to the tolerability of RTX administered as a nerve block pre-surgically and as a local application on the surgical site intraoperatively in healthy dogs undergoing tibial plateau levelling osteotomy (TPLO). Pharmacological behavior of RTX after a perineural injection and local application in the hindlimb and the long-term effects on bone healing was also observed.
Fourteen adult female beagle dogs, weighing 11.9±0.6 kg and between 3-5 years of age, were enrolled in this study. Each animal was randomly assigned to one of four groups. Four dogs (group 1) received a femoral and sciatic nerve block with 12.5 μg RTX per nerve (25 μg RTX total) diluted with sterile saline for a total volume of 2 mL (half volume per block). Another four dogs (group 2) received a femoral and a sciatic nerve block with 3.12 μg RTX per nerve block (6.25 μg RTX total) diluted with sterile saline for a total volume of 2 mL (half volume per block). Group 3 (4 animals) received a femoral and sciatic nerve block with 5 mg bupivacaine total (standard of care) plus a total of 50 μg RTX (total volume of 4 mL, concentration 12.5 μg/mL) applied locally to the cut on the tibia for 10 min. Group 4 (2 animals) was the control group and received a femoral and a sciatic nerve block with 5 mg bupivacaine total (standard of care).
Dogs were sedated and anesthetized using standard protocols and following the American College of Veterinary Analgesia and Anesthesia guidelines. A physical exam was performed prior to surgery and a complete blood count and chemistry profile were submitted. Food was withheld for 8-10 hours before surgery and offered again 4-6 hours after recovery from anesthesia.
Diphenhydramine (2.2 mg/kg) was given IM after induction. The peripheral IV catheter was used for administration of fluid (Lactate Ringer's solution (LRS) at 5 mL/kg/h), and intraoperative drugs when necessary (hydromorphone and/or ketamine and/or dexmedetomidine for analgesia, atropine in case of bradycardia, dopamine or dobutamine in case of hypotension). Cefazolin 22 mg/kg was administered intravenously prior to surgery and every 60-90 minutes during surgery.
Femoral and sciatic nerve blocks with RTX or bupivacaine were performed after induction of general anesthesia, and followed by surgery (TPLO). RTX was administered at least 15 minutes prior to any cut made to the bone. Dogs in group 3 received RTX during surgery via direct application on the bone.
At the end of surgery, animals were allowed to recover. Following extubation, animals were supervised until able to stand and walk steadily, then monitored for the first 4 hours following the procedure. Food and water were given at 4-6 hours if recovery was smooth and uneventful. All subjects received oral carprofen 2.2 mg/kg twice a day for 10 days and trazodone 5-7 mg/kg twice a day, until the end of the study.
Perineural injections (femoral and sciatic nerve block) of RTX were performed before surgery under general anesthesia and application of RTX over the bone incision was done during the surgical procedure. The nerve blocks were applied at after administration of anesthesia and least 15 minutes before surgery.
For the perineural injections, the animal was placed in right lateral recumbency and the lateral and medial aspects of proximal area of the left hindlimb were clipped and prepared using an aseptic technique. A caudal approach was used for the sciatic nerve block. The ultrasound transducer was placed over the lateral aspect of the biceps femoris, just distal to the greater trochanter and oriented craniocaudally. After obtaining a short axis view of the sciatic nerve, a sheathed needle for electrolocation was inserted caudally in-plane with the ultrasound transducer until the tip of the needle reached the nerve. The correct location of the needle was confirmed by a positive response (twitches of the leg) after activation of the nerve locator using a current of 0.3-0.5 mA. […]

Molecules are shown by their SMILES.

As to `C=C(C)[C@]12C[C@@H](C)[C@@]34O[C@](Cc5ccccc5)(O[C@@H]1[C@@H]3C=C(COC(=O)Cc1ccc(O)c(OC)c1)C[C@]1(O)C(=O)C(C)=C[C@@H]41)O2` [RTX, resiniferatoxin], the “Dogs that required dobutamine to treat hypotension” value runs as follows: (Group 1 (4 dogs), after RTX administration) “None”; (Group 2 (4 dogs), after RTX administration) “one”; (Group 3 (4 dogs)) “two”. Moreover, the “Dogs given dexmedetomidine IV to treat dysphoria immediately after extubation” value (Group 2) is reported as “one” and the “Dogs given dexmedetomidine IV to treat dysphoria immediately after extubation” value (Group 3) is “one”. The “Dogs given naloxone IV due to prolonged recovery” value (Group 2) was “One”. For the same compound, the “Mean blood pressure after increase” value (Subject 2968 (group 1), from 60 mmHg, 100 minutes after RTX, leg stretched during aseptic preparation) was 172 mmHg. Under “Subject 2968 (group 1), from 90 bpm, 100 minutes after RTX, leg stretched during aseptic preparation”, the “Heart rate after increase” value is given as 168 bpm. Further, the Tolerability result (all RTX treatments: nerve block 6.25 μg and 25 μg total, local gauze loaded with 50 μg) was “well tolerated”. The “Change in heart rate and blood pressure” value (approximately 15 to 25 minutes after RTX administration, group 1 and 2 subjects) is given as “mild to moderate increase”. For the same compound, the “Respiratory observation after extubation” value (dogs in group 1 and 2) is recorded as “polypnea”. The “Body temperature to which dogs decreased before polypnea ended” value (dogs in group 1 and 2, after extubation) is 94-95 ° F. Also, for the setting “some dogs of groups 1 and 2, clinically acted normally”, the “Duration of decrease in body temperature after the treatment” value is reported as “up to 3 days”. For the setting “three subjects of group 1 (0271, 2968, 5635), without any clinical signs”, the Persistence of hypothermia result is reported as “over 24 hours”.
